Experimental data: patent publication US11993596B2, “Fused tri-cyclic compound as PDE3/PDE4 dual inhibitor” (CHIA TAI TIANQING PHARMACEUTICAL GROUP CO., LTD., priority 2018, dated 2024)

What was measured:
[1] = reported in literature; cited from earlier work
[2] = reported in literature; cited from earlier work; remark: listed apart in the source
[3] = tested on: TNF-α in human peripheral blood mononuclear cells (hPBMCs); assay: Inhibitory activity against TNF-α in human peripheral blood mononuclear cells; type: cell-based; settings: PBMC, TNF-α in supernatant, 1 ng/mL LPS, 24 hours, read-out: hPBMC IC50
Text: In Vitro Detection of the Inhibitory Activity of Compounds Against TNF-α in Human Peripheral Blood Mononuclear Cells
Experimental objective: to express the anti-inflammatory activity at the cellular level of the test compound based on the level of TNF-α in human peripheral blood mononuclear cells (hPBMCs).
Procedure: • 1. Normal human whole blood was collected into an EDTA anticoagulation tube; • 2. The PBMCs were separated by Ficoll density gradient centrifugation, and then counted. The cell concentration was adjusted to 2×10^6/mL; • 3. To each well of a U-bottomed 96-well plate were added 2×10^5 cells, 1 ng/mL LPS, and DMSO solutions of compound at concentrations of 100 μM, 10 μM, 1 μM, 100 nM, 10 nM, 1 nM, 100 pM and 10 pM, 200 μL per well; • 4. The mixture was incubated for 24 hours, and then the supernatant was collected; • 5. The level of TNF-α in supernatant was detected by ELIZA, Graphpad Prism software was used to fit inhibition curves and IC50 was calculated.

[4] = Pharmacokinetic experiment in beagle dogs; type: in vivo; settings: male, dog, plasma
Experimental: Pharmacokinetic Experiment in Beagle Dogs
In this study, male beagle dogs were selected as test animals, and liquid chromatography-tandem mass spectrometry (LC-MS/MS) method was used for quantitatively measuring the drug concentration in plasma of beagle dogs at different time points after intravenous injection or oral administration of compound WX036 so as to evaluate the pharmacokinetic characteristics of the compound WX036 in beagle dogs.
The clear solution of compound WX036 was injected into two 10-12 kg beagle dogs via the cephalic vein or saphenous vein, and the clear solution of test compound was administered intragastrically to two 10-12 kg beagle dogs (overnight fasted). The animals were all subjected to approximately 500 μL of blood collection each time from peripheral veins at 0.0333, 0.0833, 0.25, 0.5, 1, 2, 4, 6, 8, and 24 hours post-dose, and the blood was transferred into commercial centrifuge tubes containing 0.85-1.15 mg of K2 EDTA*2H2O anticoagulant, and plasma was taken by centrifugation at 3000 g for 10 minutes at 4° C. The plasma concentration was measured by LC-MS/MS method, and the relevant pharmacokinetic parameters were calculated by WinNonlin™ Version 6.3 (Pharsight, Mountain View, CA) pharmacokinetic software using non-compartmental model linear logarithmic trapezoid method.

[5] = molecular target: CYP1A2 (Homo sapiens (Human), UniProt P05177); assay: biochemical; type: in vitro ADME
Experimental: (§1) Inhibitory Effect on the Activity of Isoenzymes (CYP1A2, CYP2C9, CYP2C19, CYP2D6 and CYP3A4) of Human Liver Microsomal Cytochrome P450
(§2) A total of 5 specific probe substrates of 5 isoenzymes of CYP, namely phenacetin (CYP1A2), diclofenac (CYP2C9), (S)-mephenytoin (CYP2C19), dextromethorphan (CYP2D6) and midazolam (CYP3A4) are each co-incubated with human liver microsomes and test compound, and then reduced nicotinamide adenine dinucleotide phosphate (NADPH) was added to initiate the reaction.

[6] = molecular target: CYP2C19 (Homo sapiens (Human), UniProt P33261); assay: Inhibition of human liver microsomal cytochrome P450 isoenzyme CYP2C19; type: in vitro ADME; settings: human liver microsomes, probe substrate (S)-mephenytoin
Experimental: as §1, §2

[7] = molecular target: CYP2D6 (Homo sapiens (Human), UniProt P10635); assay: Inhibition of human liver microsomal cytochrome P450 isoenzyme CYP2D6; type: in vitro ADME; settings: human liver microsomes, probe substrate dextromethorphan
Experimental: as §1, §2

[8] = molecular target: CYP3A4 (Homo sapiens (Human), UniProt P08684); assay: Inhibition of human liver microsomal cytochrome P450 isoenzyme CYP3A4; type: in vitro ADME; settings: human liver microsomes, probe substrate midazolam
Experimental: as §1, §2

[9] = molecular target: CYP2C9 (Homo sapiens (Human), UniProt P11712); assay: Inhibition of human liver microsomal cytochrome P450 isoenzyme CYP2C9; type: in vitro ADME; settings: human liver microsomes, probe substrate diclofenac
Experimental: as §1, §2

[10] = intravenous injection 0.5 mg/kg

Sequence of CYP2D6 (P10635 whole entry): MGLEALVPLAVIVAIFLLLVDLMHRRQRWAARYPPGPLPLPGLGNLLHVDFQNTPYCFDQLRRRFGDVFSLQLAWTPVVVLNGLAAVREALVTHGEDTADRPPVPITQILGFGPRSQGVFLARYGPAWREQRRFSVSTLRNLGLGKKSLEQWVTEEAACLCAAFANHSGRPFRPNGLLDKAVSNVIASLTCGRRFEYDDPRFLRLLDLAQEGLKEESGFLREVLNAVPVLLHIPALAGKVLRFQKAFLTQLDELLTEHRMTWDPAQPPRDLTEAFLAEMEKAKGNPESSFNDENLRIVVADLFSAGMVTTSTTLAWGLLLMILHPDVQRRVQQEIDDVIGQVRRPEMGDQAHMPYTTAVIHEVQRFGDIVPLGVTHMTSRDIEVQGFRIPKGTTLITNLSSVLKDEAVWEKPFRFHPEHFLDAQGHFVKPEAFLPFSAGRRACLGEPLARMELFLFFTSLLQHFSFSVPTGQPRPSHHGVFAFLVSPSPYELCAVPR
Sequence of CYP1A2 (P05177 whole entry): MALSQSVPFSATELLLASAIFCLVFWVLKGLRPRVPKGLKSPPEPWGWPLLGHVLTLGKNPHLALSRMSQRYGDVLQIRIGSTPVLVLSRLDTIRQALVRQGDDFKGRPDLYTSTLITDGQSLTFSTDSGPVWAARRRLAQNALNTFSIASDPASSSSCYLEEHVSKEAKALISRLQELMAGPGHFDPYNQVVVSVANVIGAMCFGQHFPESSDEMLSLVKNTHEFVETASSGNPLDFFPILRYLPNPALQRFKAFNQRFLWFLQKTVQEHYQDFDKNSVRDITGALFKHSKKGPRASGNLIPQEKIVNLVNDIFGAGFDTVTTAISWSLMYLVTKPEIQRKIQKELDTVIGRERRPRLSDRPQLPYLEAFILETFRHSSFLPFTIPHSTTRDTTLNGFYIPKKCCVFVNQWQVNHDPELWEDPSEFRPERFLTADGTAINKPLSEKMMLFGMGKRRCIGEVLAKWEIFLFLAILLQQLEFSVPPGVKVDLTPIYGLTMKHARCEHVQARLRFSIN
Sequence of CYP2C19 (P33261 whole entry): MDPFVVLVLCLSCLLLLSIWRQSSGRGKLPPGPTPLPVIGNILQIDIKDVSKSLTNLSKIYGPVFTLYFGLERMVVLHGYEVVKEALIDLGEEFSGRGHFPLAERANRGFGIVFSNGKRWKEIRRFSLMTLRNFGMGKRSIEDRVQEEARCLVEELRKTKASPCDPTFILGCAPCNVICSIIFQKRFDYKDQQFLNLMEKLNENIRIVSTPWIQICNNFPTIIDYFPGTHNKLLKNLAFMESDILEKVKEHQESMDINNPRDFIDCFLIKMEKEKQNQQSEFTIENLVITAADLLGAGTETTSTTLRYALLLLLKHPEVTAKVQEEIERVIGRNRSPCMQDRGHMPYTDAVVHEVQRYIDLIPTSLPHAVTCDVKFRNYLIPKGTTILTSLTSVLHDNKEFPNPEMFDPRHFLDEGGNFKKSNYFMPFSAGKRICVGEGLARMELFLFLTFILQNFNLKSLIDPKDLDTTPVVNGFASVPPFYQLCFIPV
Sequence of CYP3A4 (P08684 whole entry): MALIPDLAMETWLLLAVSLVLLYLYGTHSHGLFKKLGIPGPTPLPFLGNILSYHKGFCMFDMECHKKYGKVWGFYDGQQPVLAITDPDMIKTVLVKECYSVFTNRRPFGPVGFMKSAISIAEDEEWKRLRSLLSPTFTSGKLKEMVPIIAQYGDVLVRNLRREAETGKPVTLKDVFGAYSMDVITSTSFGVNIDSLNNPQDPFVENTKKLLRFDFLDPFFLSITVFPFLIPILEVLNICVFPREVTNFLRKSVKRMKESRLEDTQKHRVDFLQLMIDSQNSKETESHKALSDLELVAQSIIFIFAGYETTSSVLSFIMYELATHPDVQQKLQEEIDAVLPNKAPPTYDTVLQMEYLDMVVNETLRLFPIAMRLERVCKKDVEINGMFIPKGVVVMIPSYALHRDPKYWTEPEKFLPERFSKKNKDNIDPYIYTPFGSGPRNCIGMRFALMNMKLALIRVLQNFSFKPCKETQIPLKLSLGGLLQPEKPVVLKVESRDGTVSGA
Sequence of CYP2C9 (P11712 whole entry): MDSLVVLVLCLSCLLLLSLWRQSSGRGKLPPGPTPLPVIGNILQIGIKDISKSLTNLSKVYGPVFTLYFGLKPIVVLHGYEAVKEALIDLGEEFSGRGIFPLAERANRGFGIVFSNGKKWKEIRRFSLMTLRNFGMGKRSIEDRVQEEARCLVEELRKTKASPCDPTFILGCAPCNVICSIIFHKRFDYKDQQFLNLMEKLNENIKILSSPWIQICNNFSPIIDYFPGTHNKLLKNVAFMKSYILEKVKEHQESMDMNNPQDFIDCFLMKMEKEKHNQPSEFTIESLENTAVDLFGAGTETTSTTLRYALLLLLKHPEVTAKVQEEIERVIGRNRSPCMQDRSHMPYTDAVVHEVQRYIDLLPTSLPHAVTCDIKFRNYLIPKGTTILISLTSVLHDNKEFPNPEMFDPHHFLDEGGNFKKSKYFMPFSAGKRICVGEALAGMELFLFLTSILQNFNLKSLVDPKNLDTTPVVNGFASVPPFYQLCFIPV

Question: Which solubility [1] does the source give for `COc1cc2c(cc1OC)-c1c/c(=N\c3c(C)cc(C)cc3C)n(CCNC(N)=O)c(=O)n1CC2` [RPL554] here?
Answer: Its solubility is “poor”.

Question: And the plasma clearance [2]?
Answer: Its plasma clearance is “high”.

Question: Which IC50 [3] does the source give for `CCOc1cc2c(cc1OC)-c1c/c(=N\c3c(C)cc(C)cc3C)n(CCNC(=O)c3cnn[nH]3)c(=O)n1CC2` [WX016] here?
Answer: The IC50 was 2.8 nM.

Question: With `CCOc1cc2c(cc1OC)-c1c/c(=N\c3c(C)cc(C)cc3C)n(CCNC(=O)c3c(O)nnn3C)c(=O)n1CC2` [WX036] as the compound, how does the clearance [4, 10] read?
Answer: Its clearance is 70.3 mL/min/kg.

Question: And the half-life [4, 10]?
Answer: The half-life was 18 min.

Question: And the bioavailability ([4]; oral administration 3 mg/kg)?
Answer: Its bioavailability is 7.5%.

Question: And the IC50 [5]?
Answer: Its IC50 is 50 µM.

Question: And the IC50 [6]?
Answer: The IC50 was 50 µM.

Question: And the IC50 [7]?
Answer: The IC50 was 50 µM.

Question: What about the IC50 [8] of the same compound?
Answer: Its IC50 is 50 µM.

Question: With `CCOc1cc2c(cc1OC)-c1c/c(=N\c3c(C)cc(C)cc3C)n(CCNC(=O)c3[nH]nnc3OC)c(=O)n1CC2` [WX026] as the compound, how does the IC50 [5] read?
Answer: The IC50 was 50 µM.

Question: What about the IC50 [9] of the same compound?
Answer: The IC50 was 20 µM.

Question: And the IC50 [6]?
Answer: Its IC50 is 50 µM.

Question: What about the IC50 [7] of the same compound?
Answer: The IC50 was 50 µM.

Question: What about the IC50 [8] of the same compound?
Answer: Its IC50 is 16 µM.

Question: With `CCOc1cc2c(cc1OC)-c1c/c(=N\c3c(C)cc(C)cc3C)n(CCNc3nc[nH]n3)c(=O)n1CCC2` [WX004] as the compound, how does the IC50 [3] read?
Answer: Its IC50 is 0.33 nM.

Question: For `CCOc1cc2c(cc1OC)-c1c/c(=N\c3c(C)cc(C)cc3C)n(CCNC(=O)c3ccn[nH]3)c(=O)n1CC2` [WX018], which IC50 [3] is on record?
Answer: The IC50 was 0.09 nM.

Question: Which IC50 [3] does the source give for `CCOc1cc2c(cc1OC)-c1c/c(=N\c3c(C)cc(C)cc3C)n(CCNC(=O)c3nnc[nH]3)c(=O)n1CCC2` [WX047] here?
Answer: Its IC50 is 0.25 nM.

Question: Which IC50 [3] does the source give for `CCOc1cc2c(cc1OC)-c1c/c(=N\c3c(C)cc(C)cc3C)n(CCNc3nc[nH]n3)c(=O)n1CC2` [WX003] here?
Answer: The IC50 was 3.1 nM.

Question: With `COc1cc2c(cc1OC)-c1cc(Oc3c(C(C)C)cccc3C(C)C)nc(=O)n1CC2` [RPL565] as the compound, how does the solubility [1] read?
Answer: The solubility was “poor”.

Question: What about the plasma clearance [2] of the same compound?
Answer: Its plasma clearance is “high”.

Question: With `CCOc1cc2c(cc1OC)-c1c/c(=N\c3c(C)cc(C)cc3C)n(CCC(=O)Nc3nnc[nH]3)c(=O)n1CC2` [WX054] as the compound, how does the IC50 [3] read?
Answer: Its IC50 is 1.8 nM.

Question: For `CCOc1cc2c(cc1OC)-c1c/c(=N\c3c(C)cc(C)cc3C)n(CCNC(=O)c3nnc[nH]3)c(=O)n1CC2` [WX015], which IC50 [3] is on record?
Answer: Its IC50 is 0.36 nM.
